Laboratory results published in patent US11484608B2, “Non-invasive assessment of hepatic mitochondrial metabolism by positional isotopomer NMR tracer analysis (PINTA)” (YALE UNIVERSITY, priority 2017, dated 2022).

Tests used:
[1] = system: primary mouse hepatocytes; test: In vitro glucose production, VPC and lipolysis in isolated hepatocytes; assay type: cell-based
Summary of the method: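 Primary mouse hepatocytes were plated and cultured overnight in low-glucose DMEM, with 10% FBS for glucose production or serum-free 0.5% BSA medium for lipolysis. Media were then collected after 8 hr at 37° C for glucose, NEFA and glycerol, and VPC was derived as the PINTA VPC/VEGP ratio × glucose production. Agents were present through the 8-hr assay, and values were normalized to total protein and expressed as fold change vs vehicle.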

[2] = system: NAFLD and glucose tolerance (InsP3R-I dependent); test: Chronic 3.5 week glucagon infusion in high fat fed WT and InsP3R-I KO mice; assay type: in vivo, mouse
Description: They underwent CLAMS metabolic cage analysis to assess energetics and food and water intake during the second week of glucagon infusion. […] 48 hr later, after a 6 hr fast, they were sacrificed under isoflurane anesthesia for measurement of hepatic lipid content as described below.
In the glucose tolerance tests, rodents were injected with 1 g kg^−1 50% dextrose (rats) or 10% dextrose (mice) intraperitoneally. Blood samples were taken through the venous catheter (rats) or by tail bleeding (mice) for measurement of plasma glucose and insulin concentrations as described below (Biochemical analysis).
Plasma glucose concentrations were measured using a YSI Glucose Analyzer. […] Plasma NEFA concentrations were measured using the Wako NEFA assay, while plasma glycerol and plasma and liver amino acid concentrations were measured by GC/MS. Liver acetyl- and malonyl-CoA (standard curve R^2=0.999 and 0.999), long-chain CoA, DAG, and ceramide concentrations were measured by LC-MS/MS, hepatic glycogen content following amyloglucosidase digestion, and TAG concentrations enzymatically. cAMP concentrations were measured using the Enzo Life Sciences Direct cAMP ELISA. Protein concentrations were measured by Western blot, using antibodies from Santa Cruz (PC, PEPCK, CAMKII), Cell Signaling (ATGL, pCAMKIV, CAMKIV, pCRTC2, CRTC2, pACC, ACC, pAMPK, AMPK, pHSL, HSL, GAPDH, and β-actin), Novus Biologicals (pCAMKII), Abcam (pATGL), LSBio (pInsP3R-I), and BD Transduction Laboratories (InsP3R-II, InsP3R-III, PKCε). The antibody to pATGL was kindly provided by Dr. Hei Sook Sul, while the antibody to total InsP3R-I was custom-made using an epitope against the last 18 amino acids of InsP3R-I. Gluconeogenic gene mRNA expression was measured by qPCR^45 using primers sequences as follows: […]

[3] = isolated WT hepatocytes, 100 nM glucagon, 8 hr

glucagon
increases in NEFA and glycerol production ([1]; WT hepatocytes, glucagon, not InsP3R-I deficient): 60-100% | increase in VPC flux [1, 3]: two-fold | increase in glucose production [1, 3]: two-fold | hepatic lipid content or glucose tolerance ([2]; diet-induced obese InsP3R-I KO mice): did not manifest any alterations | body weight, food and water intake, activity and energy expenditure ([2]; diet-induced obese WT mice): unchanged | glucose tolerance ([2]; diet-induced obese WT mice): marked improvement | hepatic ceramide concentrations ([2]; diet-induced obese WT mice): without any alterations | reductions in liver triglyceride and diacylglycerol content and PKCε translocation ([2]; diet-induced obese WT mice, four-week continuous glucagon infusion): 50-80%
